Where “and” joins values, the source holds several entries; their conditions need not be identical. Equal entries are not always repeated. Records with an inconclusive call do not appear. Calls of active or inactive are those of the source.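 Rule for the calls: active = compounds lowering the luciferase signal with a fitted half-maximal dose at most twice their top valid dose (cut at about 30 µM in these data); inconclusive = flat fits with moderate signal loss, or poor fits; inactive = the rest.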 Some results are limits rather than exact numbers.

The AC50 is the concentration giving half of the maximal activity seen.

This assay concerns Clone20 osteoblast Shn3 3'UTR firefly luciferase, 24 h. Nature of the assay: Schnurri-3 3'UTR-luciferase signal suppressors – cell-based, Clone20 osteoblasts, luminescence, dry powder, set 2, dose response (AID 743417).
As to `CCn1cc(C(=O)NCc2ccco2)c(=O)c2cc(S(=O)(=O)N3CC(C)CC(C)C3)ccc21` (stereo not drawn), the AC50 was 778 nM.
For `O=C(CCN1CCc2ccccc2C(O)(c2ccccc2)C1)c1ccc2c(c1)OCCO2` (stereo not drawn) the value was 23100 nM; for `O=C(Nc1ccc(F)c(F)c1)c1ccc(F)c(S(=O)(=O)N2CCC3(CC2)OCCO3)c1`, 12200 nM.
For `COc1ccc(CN(C)c2ccc(S(=O)(=O)N3CCN(C)CC3)cc2[N+](=O)[O-])cc1OC` the value was 691 nM; for `Cc1cc(Br)c(S(=O)(=O)NCc2ccncc2)cc1C`, 1410 nM; for `CN(C)c1ccc(C=Cc2ccnc3c(O)cccc23)cc1`, 1430 nM.
For `C[C@H](NC(=O)c1ncn2c1c(=O)[nH]c1ccc(Br)cc12)c1ccccc1` the value was 8760 nM; for `Cc1ccnc(N/C=C(/NC(=O)c2ccccc2)C(=O)N/N=C\c2ccc(F)cc2)n1`, > 70000 nM (inactive).
For the compound `CCCC(=O)NC(c1cccs1)c1cc(Cl)c2cccnc2c1O` (stereo not drawn), the AC50 is 3160 nM.
With `Cn1cc(S(=O)(=O)N2CCc3ccccc32)cc1C(=O)NC(C)(C)C`, the half-maximal activity concentration (AC50) is 1250 nM.
For `O=S1(=O)C=C(Sc2nnc(-c3ccccc3)o2)c2ccccc21` the value was 1700 nM; for `O=C(C1=C[C@@H](C2CC2)C[C@@H](OCCCCO)O1)N1CCN(Cc2ccccc2)CC1`, > 70000 nM (inactive).
For `Cn1c(SCC(=O)N2CCCc3ccccc32)nc2ccccc2c1=O` the value was 3460 nM; for `Cc1ccc(NC(=O)c2cc(S(=O)(=O)NCCC3=CCCCC3)ccc2F)cc1F`, 4130 nM.
For `COc1ccccc1-c1cc(C(F)(F)F)nc(S(=O)(=O)CCCC(=O)N2CCCCC2C)n1` (stereo not drawn) the value was 2650 nM; for `Cc1cc(N2CCCC2=O)cc(C)c1S(=O)(=O)NCCOc1ccc(C(C)(C)C)cc1`, 1150 nM.
For the compound `Cc1cccc(NC(=O)Cn2cc(C(=O)C3CC3)c3ccccc32)c1C`, the concentration at half-maximal activity (AC50) is 2390 nM.
For `COC(=O)c1ccc(NC(=O)c2nc(S(=O)(=O)Cc3cccc(C)c3)ncc2Cl)cc1` the value was 1350 nM; for `C=CC[C@H](CC(=O)N(CCO)Cc1ccccc1)C(=O)NC[C@H](OC(=O)[C@@H](CC=C)Cc1ccc(F)cc1)c1ccccc1`, 10700 nM.
For `c1ccc(CCNc2ccnc3cc4ccccc4cc23)cc1` the value was 1620 nM.
For `COc1ccc(CCN2C(=O)CSC2=Nc2ccc(C(C)C)cc2)cc1OC`, the half-maximal activity concentration (AC50) is 4490 nM.
As for `CC1CC(C)CC(C)C(O)C(C#N)=CC=CCC(C2CCCC2C(=O)O)OC(=O)CC(O)C(C)C1` (stereo not drawn), the AC50 was less than 260 nM.
For `COc1ccc(NS(=O)(=O)c2ccc(N3CCOCC3)c(N)c2)cc1` the value was 1080 nM; for `CCC1CCCCN1S(=O)(=O)c1ccc(NC(=O)c2nc(S(C)(=O)=O)ncc2Cl)cc1` (stereo not drawn), 341 nM.
For `Oc1ccccc1C(Nc1nccs1)c1ccc2cccnc2c1O` (stereo not drawn) the value was 1130 nM; for `CCCNc1nc2c(c(=O)n(C)c(=O)n2C)n1Cc1cccc(C)c1`, 1910 nM.
For `COc1cc(CC(=O)Nc2nc(-c3ccc(F)c(F)c3)cs2)cc(OC)c1OC` the value was 3920 nM; for `Cc1cc(C)n(-c2nc(Nc3ccccc3C(F)(F)F)nc(-n3nc(C)cc3C)n2)n1`, 5490 nM.
For `Cc1ccc(-c2nnc(N3CCC(C)CC3)c3ccccc23)cc1C`, the half-maximal activity concentration (AC50) is 6410 nM.
As for `Cn1c(=O)c2[nH]c(CCCCCCCCc3nc4ccccc4[nH]3)nc2n(C)c1=O`, the AC50 is 3980 nM.
For `COc1cccc(CN(C)C(=O)c2cc(COc3ccc4ncccc4c3)on2)c1` the value was 1490 nM.
For `CCOC(=O)C1CCN(C(=O)c2sc3nc(C)nc(N4CCC(C)CC4)c3c2C)CC1` the value was 5260 nM; for `COc1ccc(CCNc2ncnc3c2oc2ccccc23)cc1OC`, 524 nM.
For `CCN(CC)S(=O)(=O)c1cccc(NC(=O)CNc2cccc(S(=O)(=O)N3CCCC3)c2)c1` the value was 317 nM; for `Cc1ccc(Cn2ccc(=O)c(OCc3c(Cl)cccc3Cl)c2C)cc1`, 6110 nM; for `CC(NCc1ccc(OCc2ccc(Cl)cc2)cc1)C(O)c1ccccc1` (stereo not drawn), 10900 nM.
Turning to `CC(=O)c1ccc(NC(=O)C(C)OC(=O)/C=C/c2ccco2)cc1` (stereo not drawn), the AC50 is 9120 nM.
For `COc1ccc(S(=O)(=O)N(C)C)cc1NC(=O)C1CCN(c2ncnc3sc(C)c(C)c23)CC1` the value was 9210 nM.
Turning to `O=C(/C=C/c1cccc([N+](=O)[O-])c1)n1cnc2ccccc21`, the AC50 is 594 nM.
For `CCOC(=O)C1CCN(S(=O)(=O)c2c(Cl)ccc3nonc23)CC1` the value was 919 nM.
For `Fc1ccc(C(OCCN2CCN(CCCc3ccccc3)CC2)c2ccc(F)cc2)cc1` the value was 6170 nM.
For `COc1ccc(OC)c(NC(=O)c2cc(-c3cc(F)ccc3OCC3CCCO3)n[nH]2)c1` (stereo not drawn) the value was 10500 nM; for `CN(C)C1=NC[C@H](Cc2ccccc2)N1CCCC1CCCC1`, 2630 nM.
Take `C=CCn1c(NCCc2ccccc2)nc2c1c(=O)n(C)c(=O)n2C`: the AC50 was 1830 nM.
For `Cc1[nH]nc2ccc(-c3cncc(OC[C@@H](N)Cc4c[nH]c5ccccc45)c3)cc12` the value was 1770 nM.
For `Nc1nc(Cl)cc(N2CCC(c3cc(-c4ccc(Cl)cc4)n[nH]3)CC2)n1` the value was 2430 nM; for `O=C(c1cc(COc2c(F)cccc2F)on1)N1CCC(c2ccncc2)CC1`, 1600 nM; for `CN(CC(=O)Nc1ccccc1Cl)C(=O)c1cccc(S(=O)(=O)N2CCN(c3ccccc3)CC2)c1`, 3840 nM.
For `O=[N+]([O-])c1c(NCCCO)cc(Sc2ccc(Cl)cc2)c2nonc12` the value was 5630 nM; for `CCCc1ccc(C(=O)NNc2cc(Cl)ccc2Cl)cc1`, 2590 nM.
With `CC(N)C(=O)NC1C2C(=C(O)CC(O)C2O)C(=O)OC1(C)C(Cl)Cl` (stereo not drawn), the concentration at half-maximal activity (AC50) is 1850 nM.
On to `CC[C@]12c3[nH]c4cc(CCC(=O)N(C)C)ccc4c3CCN1C(=O)[C@@H](CC(=O)NC/C=C(\C)CCC=C(C)C)C[C@@H]2C(=O)N1CCN(C(=O)c2ccco2)CC1`, for which the AC50 was 1680 nM.
In the case of `O=c1c2ccccc2cnn1-c1nc2ccccc2[nH]1`, the AC50 was 1330 nM.
For `COc1ccc(C(C(=O)NC2CCCCC2)N(C(=O)CCl)c2ccc(OC)cc2)cc1` (stereo not drawn) the value was 5560 nM.
For `CCC(=O)c1ccc(OCc2ccc(C(=O)c3ccccc3)cc2)cc1` the value was 3290 nM; for `Cc1cccc(C)c1NC(=O)c1nc(S(=O)(=O)Cc2ccccc2)ncc1Cl`, 4330 nM; for `CC1=NN(c2nc3ccccc3[nH]2)C(=O)C1Cc1ccccc1` (stereo not drawn), 4110 nM.
For `Cc1ccnc(SCC(=O)Nc2sc3c(c2C#N)CCCC3)n1` the value was 955 nM; for `O=c1c2ccccc2nc2n1C(CSCc1ccc(Cl)cc1Cl)CS2` (stereo not drawn), 1450 nM.
Take `CCOC(=O)C1(CCOc2ccccc2)CCN(Cc2ccc(OC)c(COC)c2)CC1`: the AC50 was 3870 nM.
For `CCCC(=O)N1CCN(c2ccc(NC(=O)c3ccc([N+](=O)[O-])o3)cc2Cl)CC1` the value was 700 nM; for `Cc1ccc2nnn(Cc3cccc(C(C)(C)C)c3O)c2c1`, 5440 nM.
With `CC(C)CCNc1nc(N)c([N+](=O)[O-])c(N2CCCCCC2)n1`, the AC50 was 8790 nM.
For `Cn1nc(-c2ccccn2)nc2c(=O)n(C)c(=O)nc1-2` the value was 493 nM.
For `CCN1CCN(Cc2ccc(NC(=O)c3cc(NC(=O)c4cc5cccc(OC)c5o4)cc(OC)c3)cc2C(F)(F)F)CC1` the value was 10200 nM and 9770 nM; for `Cc1onc(-c2ccccc2Cl)c1C(=O)N(C)C1CCCCC1`, 2740 nM.
For `O=C(c1ccc2c(=O)n(-c3ccccc3)c(=S)[nH]c2c1)N1CCCCC1` the value was 1440 nM; for `CC(=O)Nc1ccc(OCC(=O)Nc2ccc(Cl)c(S(=O)(=O)N3CCOCC3)c2)cc1`, 1590 nM; for `CCc1cc2c(N3CCN(c4ccccc4)CC3)ncnc2s1`, 6180 nM.
As for `CC(=O)N1CCOc2cc(S(=O)(=O)NCc3ccc(F)cc3)c(C)cc21`, the AC50 is > 70000 nM (inactive).
For `CC(C)OC(=O)c1ccc(NCc2cc(O)ccc2O)cc1` the value was 1900 nM.
For `CCc1nnc(NC(=O)c2cccc(C(=O)Nc3nnc(CC)s3)n2)s1` the value was 1450 nM.
For `CC(C)Cn1c(N)c(C(=O)COC(=O)CC23CC4CC(CC(C4)C2)C3)c(=O)n(C)c1=O` the value was 1510 nM; for `Cc1c(C)c2ccc(OCC(=O)Nc3ccccn3)c(C)c2oc1=O`, 416 nM; for `CCCCn1c(CN2CCN(c3ccccc3)CC2)nc2c1c(=O)n(C)c(=O)n2C`, 2050 nM.
Turning to `CC(C)C[C@H](N)c1nnc(S(=O)(=O)Cc2ccc(F)cc2)o1`, the AC50 is 9020 nM.
For `COc1ccccc1C(NC(C)=O)c1cc(Cl)c2cccnc2c1O` (stereo not drawn) the value was 2560 nM.
In the case of `CN(C)c1nc(-c2ccccn2)nnc1-c1ccccc1`, the half-maximal activity concentration (AC50) was 3300 nM.
For `Cc1ccc(C)c(N2CCN(S(=O)(=O)c3ccc4[nH]c(=O)ccc4c3)CC2)c1` the value was 24200 nM; for `Oc1c(CN2CCCCC2)cc(COCc2ccccc2)c2cccnc12`, 537 nM; for `Cn1c(/C=C/c2ccc(Cl)cc2Cl)c([N+](=O)[O-])c(=O)n(C)c1=O`, 6870 nM.
For `CCC(CC)CC1CN2CCc3cc(OC)c(OC)cc3C2CC1(O)CC` (stereo not drawn) the value was 2000 nM; for `Cn1cnc([N+](=O)[O-])c1S(=O)(=O)Oc1ccccc1`, 3830 nM.
For `CC(=O)c1cccc(NS(=O)(=O)c2ccc(-c3cnc(C4CC4)o3)cc2)c1` the value was 5000 nM; for `CCCC(=O)NC(c1cccc([N+](=O)[O-])c1)c1ccc2cccnc2c1O` (stereo not drawn), 1750 nM.
In the case of `CCCCNc1cc(C)nc(NCc2ccccc2)n1`, the AC50 was 719 nM.
For `Cc1c(C(=O)Nc2ccc(F)c(F)c2)oc2ccc(S(=O)(=O)N3CCCCC3)cc12` the value was 7050 nM.
For `CCn1c2ccccc2c2cc(CNCc3ccc(OC)cc3OC)ccc21` the value was 14700 nM; for `CCCCC(=O)NC(c1ccccc1Cl)c1ccc2cccnc2c1O` (stereo not drawn), 1120 nM; for `Oc1ccc(-c2nc(-c3ccc(O)c(O)c3)cs2)cc1`, 5070 nM.
For `COc1ccccc1C(CCNCc1ccc(N(C)C)cc1)c1ccc(OC(C)C)cc1` (stereo not drawn) the value was 6480 nM; for `COc1cc2c(OC(C)=O)c3c(c(-c4ccc5c(c4)OCO5)c2cc1OC)C(=O)OC3`, 1800 nM.
As to `Cc1ccc(CNC(=O)c2ccc3c(=O)c(O)c(-c4ccc(C)cc4)[nH]c3c2)cc1`, the AC50 was 2820 nM.
